The text below walks through data of ChEMBL document CHEMBL1133104, “Polyether mimics of naturally occurring cytotoxic annonaceous acetogenins” (2000).

Holding throughout (assay type): functional, Homo sapiens
The test system of test [1] is HL-60. Kind of test: Compound at 10 uM was tested in vitro to inhibit proliferation of HL-60 leukemia cell line.
Test [2] has as its system K562. Briefly: Compound at 100 uM was tested in vitro to inhibit proliferation of K562 leukemia cell line.
The test system of test [3] is K562. Briefly: Compound at 1 uM was tested in vitro to inhibit proliferation of K562 leukemia cell line.
Test [4] concerns K562. Kind of test: Compound at 10 uM was tested in vitro to inhibit proliferation of K562 leukemia cell line.
Test [5] concerns HL-60. Kind of test: Compound at 1 uM was tested in vitro to inhibit proliferation of HL-60 leukemia cell line.
In test [6] the test system is HL-60. Kind of test: Compound at 100 uM was tested in vitro to inhibit proliferation of HL-60 leukemia cell line.

In the case of `CCCCCCCCCCCC[C@@H](O)[C@H]1CCC([C@H](O)CCCCC(O)CCCCCCCC2=C[C@H](C)OC2=O)O1` (mixture of isomers), the IG in the test with HL-60 [1] turned out to be 56%; with K562 [2] it was 10%; in the test on K562 [3], 0%; in the test with K562 [4], 2%; with HL-60 [5], 5%; in the test on HL-60 [6], 63%.
As for `CCCCCCCCCC[C@@H](O)[C@@H]1CC[C@@H]([C@@H]2CC[C@@H]([C@H](O)CCCCCCCCCC(O)CC3=CC(C)OC3=O)O2)O1` (stereo partly specified) [BULLATACIN], the IG with HL-60 [1] is 7%; in the test with K562 [2] it was 53%; with K562 [3], 27%; with K562 [4], 39%; with HL-60 [5], 0%; in the test on HL-60 [6], 73%.
For the compound `CCCCCCCCCCCOCCOCCOCCCCC(O)CCCCCCCC1=C[C@H](C)OC1=O` (stereo partly specified), the IG came to 50% with HL-60 [1]; 31% in the test with K562 [2]; 0% in the test on K562 [3]; 18% in the test on K562 [4]; 0% in the test with HL-60 [5]; 100% with HL-60 [6].
For the compound `CCCCCCCCCCCC[C@@H](O)[C@H]1CCC([C@H](O)CCCCC(=O)CCCCCCCC2=C[C@H](C)OC2=O)O1` (stereo partly specified), the IG is 29% with HL-60 [1]; 53% with K562 [2]; 2% in the test with K562 [3]; 16% in the test on K562 [4]; 0% in the test on HL-60 [5]; 68% in the test with HL-60 [6].
`CCCCCCCCCCCC[C@@H](O)[C@H]1CC[C@H]([C@H](O)CCCCCCCCCCCCC2=C[C@H](C)OC2=O)O1` [REL-SOLAMIN]: the IG with HL-60 [1] was found to be 8%; with K562 [2], 59%; in the test on K562 [3], 29%; in the test on K562 [4], 39%; with HL-60 [5], 0%; in the test on HL-60 [6], 24%.
Regarding `CCCCCCCCCCOCCOCCOCCOCCCCC(O)CCCCCCCC1=C[C@H](C)OC1=O` (stereo partly specified), the IG in the test on HL-60 [1] worked out at 65%; in the test on K562 [2] it was 55%; in the test with K562 [3] it was 22%; in the test on K562 [4], 25%; with HL-60 [5], 21%; with HL-60 [6] it was 100%.
